# System: Tetrahymena pyriformis
# Assay: 48 h IGC50 (-log10 mol/L); higher = more toxic
row,SMILES,48 h IGC50 (-log10 mol/L)
1,COc1ccc(CO)cc1O,2.01
2,CCOC(=O)C(C)C,1.73
3,N#CCC(=O)c1ccco1,3.3
4,O=[N+]([O-])c1cc(Cl)ccc1O,5.12
5,Clc1ccccn1,2.16
6,C/C=C/C(=O)OC(C)(C)C,2.36
7,Cc1ccc(C=O)c2ccccc12,4.12
8,O=[N+]([O-])c1cc(Cl)c(Cl)c([N+](=O)[O-])c1Cl,5.6
9,Cc1cccc(C=O)c1,3.08
10,CCOC(=O)CCCCCC(=O)OCC,3.41
11,COC(=O)c1cccc(O)c1,2.95
12,CCCCC#CCCO,3.02
13,Cc1ccc(CCN)cc1,2.96
14,c1cn[nH]c1,1.29
15,OCCBr,2.15
16,CCCCCOc1ccc(N)cc1,3.97
17,O=C(O)c1cc(Cl)ccc1O,2.6
18,O=[N+]([O-])c1c(Cl)cc(Cl)cc1Cl,4.43
19,CC(C)(O)c1ccccc1,2.43
20,Oc1ccc(O)cc1,3.47
21,CCC(=O)OC,1.39

row,SMILES,48 h IGC50 (-log10 mol/L)
1,CCCCCCOc1ccc(N)cc1,4.38
2,SC1CCCCC1,3
3,OCCCc1ccccc1,2.79
4,C#CC=CCO,2.44
5,O=C(O)c1c(Cl)cccc1Cl,2.33
6,O=C(CBr)c1cc2ccccc2oc1=O,5.66
7,O=Cc1c(O)ccc2ccccc12,4.32
8,OCC(O)CBr (centres undefined),1.79
9,O=C(O)c1ccc(O)cc1,1.98
10,Nc1c(Cl)c(Cl)cc(Cl)c1Cl,4.76
11,CCOC(=O)Cc1cccnc1,2.06
12,CCCCCCC=CCO,3.77
13,CC(O)CCO (centres undefined),0.699
14,C#CCC(O)CC (centres undefined),1.6
15,C#CCCCO,1.58
16,Cc1ccc(O)c(Br)c1,3.6
17,COC(=O)c1ccc(OC)cc1O,3.62
18,CCCCCC1CCCC(=O)O1 (centres undefined),2.92
19,N#Cc1cccc2ccccc12,3.69
20,CC(N)c1ccccc1 (centres undefined),2.82
21,C/C=C/C(=O)CC,3.92

row,SMILES,48 h IGC50 (-log10 mol/L)
1,N#Cc1ccc(Cl)cc1,3
2,CCOC(=O)CCBr,3.13
3,CCCCc1ccco1,3.44
4,CCCCCCCCCCCC(C)O (centres undefined),5.17
5,CCOC(=O)C(C#N)c1ccccc1 (centres undefined),2.98
6,Clc1cccc(Cl)c1Br,4.34
7,Cc1cc(C)cc(N)c1,2.64
8,N#CCCCCBr,2.79
9,O=[N+]([O-])c1ccc(O)c(Cl)c1,4.18
10,CCCCOC(=O)c1ccccc1,3.92
11,Cc1cc(=O)[nH]cc1[N+](=O)[O-],2.83
12,O=C(c1ccccc1)c1ccccc1,3.87
13,CCOC(=O)C(Cl)C(=O)OCC,3.63
14,CC(=O)c1ccco1,1.96
15,OC12CC3CC(CC(C3)C1)C2,2.92
16,C#CCN(C)C,1.85
17,CCC(C)(O)c1ccccc1 (centres undefined),3.06
18,CCOC(=O)C=C(OCC)OCC,2.35
19,CC(=O)c1cccc([N+](=O)[O-])c1,3.32
20,O=[N+]([O-])c1cccnc1Cl,3.87
21,CC(Br)C#N (centres undefined),3.63

row,SMILES,48 h IGC50 (-log10 mol/L)
1,CCCOC=O,1.98
2,COC(=O)CCCBr,3.07
3,CCCCC/C=C/C(C)=O,3.98
4,CCCI,2.61
5,OCc1ccccc1O,2.05
6,CC(C)(Br)C(=O)C(C)(C)Br,3.51
7,O=[N+]([O-])c1ccc(I)c([N+](=O)[O-])c1,5.12
8,CC(C)(CO)CCl,2.22
9,C=C(C)C(=O)OCCC,2.35
10,Cc1ccc([N+](=O)[O-])cc1F,3.33
11,COc1ccc(C=O)c(Cl)c1O,3.2
12,CC/C=C/C(=O)O,2.72
13,CCCCCCCCCl,3.67
14,CCCCCCOc1ccc(O)cc1,4.64
15,C=COC(=O)C=C,4.42
16,O=[N+]([O-])c1ccc(F)c(F)c1F,4.89
17,CC=CC(=O)OCC(C)C,2.66
18,CCOC(=O)c1ccc(C#N)cc1,3.37
19,OCCCCCCc1ccccc1,3.87
20,O=C(O)c1cccc(Cl)c1Cl,2.59
21,CCCNC(C)=O,1.5

# From EPA's aquatic toxicity sets
